We go through 1 compound from US20250051301A1, “MUTANT IDH1 AND IDH2 INHIBITOR AND APPLICATION THEREOF” (Betta Pharmaceuticals Co., Ltd, priority 2022, published 2025).

A short description of data set [1]: Kinetic solubility experiment. The conditions noted are these: buffer, kinetic from dmso stock. The format is physicochemical. Here is the method: 1. Preparation of Solutions/Buffers at Different pH Values
• Solution A: 17.42 g of K2HPO4 was weighed and dissolved in 1 L of ultrapure water. • Solution B: 13.65 g of KH2PO4 was weighed and dissolved in 1 L of ultrapure water.
A certain mass of substance to be tested was accurately weighed and dissolved in a certain volume of DMSO to obtain a 20 mM or 10 mM stock solution.
An acetonitrile stopping solution containing 1 ng/mL of labetalol and glibenclamide was prepared.
3. Incubation System (n=3)
The above-mentioned solutions were placed in a 96-well plate, respectively and shaken in a thermostatic oscillator for 2 hours (37° C., 150 rpm).
4. Control solution: 200 μM control solution of the substance to be tested was prepared in methanol. 5. Sample treatment
At a predetermined time, the 96-well plate was placed in a centrifuge and centrifuged at 4100 rpm for 15 minutes. A certain volume of the supernatant and a certain volume of control solution were respectively taken into 19 times volume of water containing 70% acetonitrile that has been previously added. The mixture was uniformly mixed, diluted 20 times with an internal standard stop solution and shaken in a thermostatic oscillator at 700 rpm at room temperature for 5 min. Further dilution may be necessary depending on the sensitivity of the compound, and sample analysis was performed by LC-MS/MS.
The ratio of compound peak area to internal standard peak area was used for calculation. According to the concentration relationship between the compound in the buffer and the control solution, the calculated concentration was the kinetic solubility, and the calculation formula was as follows:
Solubility(μg/mL)=mass spectral peak area of the compound to be tested in buffers at different pHs×200μM×molecular weight of the compound to be tested(MW)/mass spectral peak area of the compound to be tested in methanol/1000;

Data set [2] addresses T1, IDH2^R140Q (Homo sapiens, UniProt P48735, R140Q).
T1 sequence (P48735 40-452 R140Q): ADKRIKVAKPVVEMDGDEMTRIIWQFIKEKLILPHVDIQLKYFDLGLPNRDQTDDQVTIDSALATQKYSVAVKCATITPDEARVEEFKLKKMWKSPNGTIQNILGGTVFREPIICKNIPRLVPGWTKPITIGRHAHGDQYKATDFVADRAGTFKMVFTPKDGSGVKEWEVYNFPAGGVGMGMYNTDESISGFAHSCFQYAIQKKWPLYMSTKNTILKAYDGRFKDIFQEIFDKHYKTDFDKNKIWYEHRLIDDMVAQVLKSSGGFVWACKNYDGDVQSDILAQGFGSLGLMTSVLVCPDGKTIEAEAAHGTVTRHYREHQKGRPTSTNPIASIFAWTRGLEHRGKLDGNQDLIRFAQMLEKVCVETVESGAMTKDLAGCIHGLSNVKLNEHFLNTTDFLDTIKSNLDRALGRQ
Briefly: Enzyme activity inhibition assay (fluorescence-based), IDH2 R140Q. The class given is biochemical. The settings on record: numeric values. The procedure: The inhibitory ability of the compounds on the enzyme activities of IDH1^R132H and IDH2^R140Qwas detected and expressed as the half inhibitory concentration (IC50) value. AG-881 was used as a positive control compound. In this experiment, compounds were screened on enzymes IDH1^R132H and IDH2^R140Q using a fluorescence-based method (initial concentration: 10000 nM, 3-fold dilution, 10 concentrations, and single-well detection). • (1) Preparation of 1×assay buffer. • (2) Preparation of compound concentration gradient: the compounds to be tested were assayed at an initial concentration of 10000 nM, with 3-fold dilution and 10 concentrations, and diluted into 200-fold the final concentration in 100% DMSO solution in a 384-well plate. • (3) 250 nL of DMSO and 250 nL of diluted compounds were transferred to a reaction plate with Echo 550. • (4) IDH2^R140Q enzyme detection: 25 μL of an IDH2^R140Q enzyme solution was added, and the mixture was incubated for 60 minutes; then 25 μL of a substrate solution was added, and the mixture was incubated for 150 minutes; then 25 μL of a detection buffer was added, and the mixture was shaken for 1 minute and incubated for 60 minutes; and finally, Synergy 2, Ex544/Em590 cutoff 590 was used for reading. • (5) IDH1^R132H enzyme detection: 40 μL of a mixture solution of an IDH1^R132H enzyme at the 1.25-fold final concentration and NADPH was added, and the mixture was incubated for 60 minutes; then 10 μL of a substrate solution at the 5-fold final concentration was added, and the mixture was incubated for 90 minutes; then 25 μL of a detection buffer at the 3-fold final concentration was added, and the mixture was shaken for 1 minute. and finally, Synergy 2, Ex544/Em590 cutoff 590 was used for reading. • (8) Inhibition rate calculation, formula: % Inhibition=(RFU_sample−RFU_min)/(RFU_max−RFU_min)*100%, wherein RFU-sample represents the fluorescence intensity of a sample; RFU-min represents the average value of negative control wells and represents the fluorescence intensity with an enzyme; and RFU-max represents the average value of positive control wells and represents the fluorescence intensity without an enzyme. The curve fitting was performed using Graphpad Prism software to obtain IC50 values, and the test results were as shown in table 2.

Data set [3] can be described thus: Pharmacokinetic detection in dogs. The settings on record: beagle dogs. The class given is in vivo. The procedure: Adult beagle dogs (6-12 months of age) received a single dose of the compounds to be tested via intravenous administration (IV) or oral gavage administration (PO), respectively. In the IV single dose, 5% DMSO+5% Solutol+90% physiological saline was used as the excipient; the intravenous administration was carried out at a dose of 1 mg/kg (2 females and 2 males); and the venous blood collection time was 5 min, 15 min, 0.5 h, 1 h, 2 h, 4 h, 6 h, 8 h, 10 h and 24 h. In the PO single dose, 5% DMSO+5% Solutol+90% purified water was used as the excipient; the oral gavage administration was carried out at a dose of 5 mg/kg (2 females and 2 males); and the blood collection time was 15 min, 0.5 h, 1 h, 2 h, 4 h, 6 h, 8 h, 10 h and 24 h. Blood samples were collected in tubes containing EDTA anticoagulants and centrifuged at 4000 rpm at 4° C. for 10 min, and the supernatants were transferred to centrifuge tubes and stored at −20° C. For the detection, 30 μL of the plasma supernatant sample was taken, and 200 μL of an internal standard solution was added. The mixture was centrifuged at 3000 rpm for 10 minutes. Then, 100 μL of the supernatant solution was diluted with water at a 1:1 ratio and then injected with an injection volume of 5 μL. The concentration of the compounds to be tested in the plasma sample was analyzed by liquid chromatography-tandem mass spectrometry (LC-MS/MS). Plasma concentration-time data for individual animals were analyzed using Sciex Analyst software. The non-compartment model was introduced into the concentration analysis, and pharmacokinetic parameters (Cl_obs, Cmax and AUClast) of the compounds to be tested were calculated using WinNonlin (version 4.1; pHarsight) software.

[4] abbreviates: both sexes, dog, plasma, PO, 5 mg/kg.

In brackets after ≈: the same amount, converted by molar mass.

On to `C[C@@H](Nc1nc(N[C@H](C)C(F)(F)F)nc(-c2cc(F)c(N)c(Cl)n2)n1)C(F)(F)F` [Example 5, 6-(5-amino-6-chloro-4-fluoropyridin-2-yl)-N^2,N^4-bis((R)-1,1,1-trifluoropropyl-2-yl)-1,3,5-triazine-2,4-diamine], for which the solubility at 2 h in data set [1] (aqueous buffer, pH = 3.0, 37° C.) was 53.3 µg/mL (≈ 119 µM); in data set [1] (aqueous buffer, pH = 5.0, 37° C.), 59.5 µg/mL (≈ 133 µM); in data set [1] (aqueous buffer, pH = 7.4, 37° C.), 48.1 µg/mL (≈ 107 µM); in data set [1] (simulated gastric fluid, pH = 1.0, 37° C.), 86.6 µg/mL (≈ 193 µM). Also, the IC50 in data set [2] is 190 nM. Besides, the Cl_obs in data set [3] (IV, 1 mg/kg) stood at 5.1 mL/min/kg. The AUC(0-t) turned out to be 2630 ng·h/mL in data set [3] (both sexes, dog, plasma, IV, 1 mg/kg) and 11700 ng·h/mL in data set [3] (setting [4]). For the same compound, the peak level in data set [3] (setting [4]) (Cmax) was 1160 ng/mL.

Usually solubility stands for the concentration that dissolves in the medium under given conditions. Broadly, the IC50 is the concentration at which inhibition is half-maximal. Usually AUC(0-t) stands for the area under the concentration-time curve up to a stated or last time point. High values mean high exposure, low ones low exposure. What is called Cmax is the peak of the concentration-time curve.
